In the assay the target is T1, porcine leukocyte 12/15-lipoxygenase (Sus scrofa, UniProt P16469).
T1 construct: purchased Cayman 60300
T1 sequence (P16469 1-663): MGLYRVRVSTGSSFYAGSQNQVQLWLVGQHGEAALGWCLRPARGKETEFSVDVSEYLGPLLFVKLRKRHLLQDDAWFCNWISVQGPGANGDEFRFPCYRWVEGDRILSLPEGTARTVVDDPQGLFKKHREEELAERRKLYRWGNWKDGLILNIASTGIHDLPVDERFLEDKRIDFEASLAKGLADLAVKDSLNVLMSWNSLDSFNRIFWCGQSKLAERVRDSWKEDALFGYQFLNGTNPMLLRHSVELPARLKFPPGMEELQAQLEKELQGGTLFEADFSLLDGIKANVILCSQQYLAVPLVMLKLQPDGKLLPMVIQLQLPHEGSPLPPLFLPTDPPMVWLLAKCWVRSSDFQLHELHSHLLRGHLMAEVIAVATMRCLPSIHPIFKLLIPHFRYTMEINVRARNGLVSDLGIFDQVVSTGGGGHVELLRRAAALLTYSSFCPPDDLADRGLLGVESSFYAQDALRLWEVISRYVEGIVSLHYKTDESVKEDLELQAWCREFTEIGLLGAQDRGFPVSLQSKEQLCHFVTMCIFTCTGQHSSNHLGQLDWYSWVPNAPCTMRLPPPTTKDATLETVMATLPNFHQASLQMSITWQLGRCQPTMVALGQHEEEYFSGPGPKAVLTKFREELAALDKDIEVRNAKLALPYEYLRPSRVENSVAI
As to the kind of experiment: 12/15-Lipoxygenase enzyme assay. Format: biochemical. To be noted: 70 μM arachidonic acid, pH 7.4, 10 minute incubation; read-out: IC50, inhibition of 12/15-Lipoxygenase.

Structures are written as SMILES.

With `COC(=O)c1ccc(-c2c(O)c(C)c(C)c3c2CCC(C)(C)O3)cc1` [4-(6-Hydroxy-2,2,7,8-tetramethyl-chroman-5-yl)-benzoic acid methyl ester], the IC50 is below 1000 nM.
The figure for `Cc1c(C)c2c(c(C)c1O)CCC(C)(C=C(Br)Br)O2` (stereo not drawn) [2-(2,2-Dibromo-vinyl)-2,5,7,8-tetramethyl-chroman-6-ol] is below 1000 nM; for `C=CCSCc1c(O)c(C)c(C)c2c1CCC(C)(C)O2` [5-Allylsulfanylmethyl-2,2,7,8-tetramethyl-chroman-6-ol] it is below 1000 nM.

These data come from US8791155B2, “Chroman derivatives” (Edison Pharmaceuticals, Inc., priority 2003, dated 2014).
